In patent US11058705B2, “Drug formulations” (Astex Pharmaceuticals, Inc., priority 2011, dated 2021):
≈ marks a conversion by molar mass, not a printed value. Like-named read-outs stand apart in the source and are kept apart here. Each block holds one molecule with its values, some of them ahead of it.

Columns and labels:
DNA methylation = test: Cell-based GFP assay for reactivation of silenced GFP transgene (demethylating activity); settings: for GFP Expression Level: three days, decitabine 1 μM or test compound 30-50 μM, fraction of viable cells expressing GFP; for EC50: read-out: GFP50
Description: The demethylating activity of compounds of the invention was tested in a cell-based green fluorescent protein (GFP) assay. In the assay, a decrease in methylation resulting from exposure to a methylation inhibitor led to GFP expression, and was readily scored.
The CMV-EE210 cell line containing the epigenetically silenced GFP transgene was used to assay for reactivation of GFP expression by flow cytometry. CMV-EE210 was made by transfecting NIH 3T3 cells with the pTR-UF/UF1/UF2 plasmid, which contained pBS(+) (Stratagene, Inc.) with a cytomegalovirus (CMV) promoter driving a humanized GFP gene adapted for expression in mammalian cells. After transfection, high-level GFP expressing cells were initially selected by FACS analysis and sorting using a MoFlo cytometer (Cytomation, Inc.).
Decitabine, a potent inhibitor of mammalian DNMT 1, was used as a positive control. […] Cells were then seeded to 30% confluence (˜5000 cell/well) in a 96-well plate containing the test compounds, and grown for three days in at 37° C. in 5% CO2.
The plates were examined under a fluorescent microscope using a 450-490 excitation filter (13 filter cube, Leica, Deerfield Ill.). Wells were scored g1 positive, g2 positive, or g3 if GFP was expressed in 10%, 30%, >75% of viable cells, respectively.
Table 1 provides the results of the test for decitabine and the test compounds as DNA methylation inhibitors. GFP50 is the concentration of an inhibitor at which the Green Fluorescent Protein (GFP) expression level is reduced from g3 to g1/2.

[1] = Stability in solvent formulations by HPLC; format: physicochemical; settings: for % decomposition per hour / Percent compound detected: sodium salt
Description: The stability of a compound of the invention in various formulations under various storage conditions was investigated. Stability was determined by HPLC at the designated time intervals.

[2] = Solubility in formulation solvent and in water; format: physicochemical; settings: organic solvent or mixture; substantially anhydrous solvent of the formulations of the invention
Excerpt: The good chemical stability taken together with the excellent solubility identified the glycol/glycerin/ethanol (65:25:10) system as a formulation for use in animal experiments.

LINE-1 DNA methylation = LINE-1 DNA methylation in blood samples, repeat dose study; format: in vivo, cynomolgus monkeys; settings: until day 22, p<0.05 versus level prior to initial dosing
Description: In a repeat dose study, monkeys were dosed 3× weekly subcutaneously (3 mg/kg). […] (FIGS. 1 and 2.) Pharmacodynamic properties (not shown) were monitored and were acceptable. Blood samples were drawn periodically to assay LINE-1 DNA methylation.

[3] = concentration at which GFP expression level is reduced from g3 to g1/2, CMV-EE210 cells

EC50 (DNA methylation; [3]): 700 nM
Structure (SMILES): Nc1ncn([C@H]2CC(O)[C@@H](COP(=O)(O)OC3C[C@H](n4cnc5c(=O)[nH]c(N)nc54)O[C@@H]3CO)O2)c(=O)n1 (some centres unmarked) [Compound I-2]
GFP Expression Level (DNA methylation; CMV-EE210 cells): g3 (>75% of viable cells)

Structure (SMILES): Nc1ncn([C@H]2C[C@H](O)[C@@H](CO)O2)c(=O)n1 [Decitabine, 5-aza-2′-deoxycytidine, reference compound]
GFP Expression Level (DNA methylation; CMV-EE210 cells): g3 (>75% of viable cells)
EC50 (DNA methylation): 500 nM

Stability in anhydrous DMSO ([1]; anhydrous DMSO): stable
Improvement in stability ([1]; combined effects of cooling plus addition of ethanol to the propylene glycol/glycerin system): 66 fold
Improvement in stability ([1]; propylene glycol/glycerin/ethanol (65:25:10), changing from warmer to colder storage conditions): 40 fold
% decomposition per hour ([1]; DMSO/water (1:1, w/w), 25° C./60% relative humidity): 0.72
Percent compound detected ([1]; DMSO/water (1:1, w/w), 25° C./60% relative humidity, 5 hours): 90.1%
Percent compound detected ([1]; DMSO/water (1:1, w/w), 25° C./60% relative humidity, time point 0): 93.7%
% decomposition per hour ([1]; DMSO/water (3:1, w/w), 25° C./60% relative humidity): 0.10
Percent compound detected ([1]; DMSO/water (3:1, w/w), 25° C./60% relative humidity, 24 hours): 94.2%
Percent compound detected ([1]; DMSO/water (3:1, w/w), 25° C./60% relative humidity, time point 0): 96.6%
% decomposition per hour ([1]; propylene glycol/glycerin (70:30, v/v), room temperature): 0.021
Percent compound detected ([1]; propylene glycol/glycerin (70:30, v/v), room temperature, 24 hours): 96.3%
Percent compound detected ([1]; propylene glycol/glycerin (70:30, v/v), room temperature, time point 0): 96.8%
% decomposition per hour ([1]; propylene glycol/glycerin/ethanol (65:25:10, w/w/w), 2-8° C.): 0.00032
Percent compound detected ([1]; propylene glycol/glycerin/ethanol (65:25:10, w/w/w), 2-8° C., 3 months): 95.1%
Percent compound detected ([1]; propylene glycol/glycerin/ethanol (65:25:10, w/w/w), 2-8° C., time point 0): 95.8%
% decomposition per hour ([1]; propylene glycol/glycerin/ethanol (65:25:10, w/w/w), 25° C./60% relative humidity): 0.013
Percent compound detected ([1]; propylene glycol/glycerin/ethanol (65:25:10, w/w/w), 25° C./60% relative humidity, 3 months): 67.6%
Percent compound detected ([1]; propylene glycol/glycerin/ethanol (65:25:10, w/w/w), 25° C./60% relative humidity, time point 0): 95.8%
% decomposition per hour ([1]; water, pH 7.0, 2-8° C.): 0.14
Percent compound detected ([1]; water, pH 7.0, 2-8° C., 5 hours): 95.1%
Percent compound detected ([1]; water, pH 7.0, 2-8° C., time point 0): 95.8%
% decomposition per hour ([1]; water, pH 7.0, room temperature): 1.1
Percent compound detected ([1]; water, pH 7.0, room temperature, 5 hours): 90.4%
Percent compound detected ([1]; water, pH 7.0, room temperature, time point 0): 95.8%
solubility [2]: 130 to 150 mg/mL (≈ 233 to 269 mM)
EC50 (DNA methylation; [3]): 400 nM
Structure (SMILES): Nc1ncn([C@H]2CC(OP(=O)(O)OC[C@H]3O[C@@H](n4cnc5c(=O)[nH]c(N)nc54)CC3O)[C@@H](CO)O2)c(=O)n1 (stereo in doubt) [Compound I-1]
GFP Expression Level (DNA methylation; CMV-EE210 cells): g3 (>75% of viable cells)
Change in LINE-1 DNA methylation (LINE-1 DNA methylation): Decreases in LINE-1 DNA methylation
